According to US9156826B2, “Asymmetrical reversible neuromuscular blocking agents of ultra-short, short, or intermediate duration” (Cornell University, priority 2012, dated 2015):
“Also recorded” adds a separate entry of the source. Read-outs that look alike come from different tables or passages of the source.

What was measured:
[1] = system: twitch responses of the extensor digitorum of the foot (peroneal nerve stimulation); assay: Neuromuscular blocking potency and duration: twitch blockade dose-response in anesthetized rhesus monkeys; format: in vivo, rhesus monkey (Macaca mulatta); details: for ED95: Macaca mulatta; for Duration (min ± SD): at the actual dose administered, injection to recovery of twitch to 95% of control; for Blockade (%) / Onset / Total Duration: Table 3, dose 0.064 ± 0.010 (gantacurium) or 0.060 ± 0.012 mg/kg (CW1759-50)
Procedure: (§1) Selected NMBA compounds were tested as described in PCT/US2010/000796 application by an inventor herein, published as WO2010/107488, which is incorporated by reference, see pages 66-78. Dose-response curves for twitch blockade by test compounds were generated as described. […] Successive doses were separated by at least three estimated half lives beyond complete recovery of the previous dose to TOF of 110-120%, which is normal for these monkeys. Only the first one or two doses yielding 5 to 99% blockade were included from any single experiment for computation of dose-response data. Comparative studies of spontaneous recovery versus antagonism/reversal were done at least 3 estimated half-lives following dose-response studies. ED50 and ED95 were computed from the regression of log dose vs. the logit of percentage blockade of twitch.
Experiments were approved by the Institutional Animal Care and Use Committee of Weill Medical College of Cornell University (New York, N.Y.) and of Albany Medical College (Albany, N.Y.), where the studies were conducted. A colony of 10 adult male monkeys (Macaca mulatta) weighing 8-18 kg was studied at ˜6 week intervals. Animals were housed and cared for in accordance with the Guide for Care and Use of Laboratory Animals (National Research Council, Washington, D.C.). They were fed a standard Old World monkey diet, enriched with fruits and vegetables, and other dietary novelties and were followed throughout the study to verify normal health by physical examination, body weight, and clinical laboratory studies (Complete Blood Count, Blood Urea Nitrogen and creatinine, and liver function tests).
(§2) On the day of each study, monkeys received ketamine (7-10 mg/kg i.m.) followed by tracheal intubation under topical anesthesia with 4% lidocaine. Ventilation was controlled at 10 mL/kg and 20 breaths/min with isoflurane (1.0-2.0%) and N2O/O2 (2:1 mixture). Ringers lactate was administered at ˜10 ml kg^−1 h^−1. Arterial pressure was monitored from a femoral, superficial tibial, or radial (22 gauge) cannula. Heart rate was measured by tachograph from the arterial pulse wave. Core temperature was kept at 36.5-38.0° C. by warming blankets. Electrocardiogram and pulse oximetry were monitored continuously.
(§3) Needle electrodes (25 gauge) transmitting square-wave pulses of 0.2 msec duration at supramaximal voltage which were generated by a Grass S-88 stimulator (Grass Instruments, Quincy, Mass.) were placed at the peroneal nerve at the knee to elicit twitch responses of the extensor digitorum of the foot at 0.15 Hz. A small slip (10-20%) of the tendon was dissected free under sterile technique and tied to a Grass FT 10 force transducer (Grass Instruments, Quincy, Mass.) at a baseline tension of 50 gm. Train-of four stimulation (TOF, 2 Hz for 2 sec) was interposed at appropriate points, especially 1-2 min prior to NMBA dosing and following recovery of twitch to 95% of baseline, where TOF was subsequently evaluated every 1-2 min.
(§4) Recordings of circulatory and neuromuscular data were made on a Grass 7B polygraph (Grass Instruments). A baseline period of 15-20 min was allowed for stabilization of recordings prior to dosing.^2
Dose-response curves for twitch blockade by gantacurium, CW 002, CW 011, cisatracurium, CW002-Cys, NB 938-69, NB 1064-81, NB 802-17 (CW 001), NB 832-65, and NB 1163-79, structures of which are all shown above, were generated as follows. […] Successive doses were separated by at least three estimated half lives beyond complete recovery of the previous dose to TOF of 110-120%, which is normal for these monkeys. Only the first one or two doses yielding 5 to 99% blockade were included from any single experiment for computation of dose-response data.
ED 50 and ED 95 were computed from the regression of log dose vs. the logit of percentage blockade of twitch.

[2] = system: twitch responses of the extensor digitorum of the foot (peroneal nerve stimulation); assay: Spontaneous recovery versus reversal of neuromuscular blockade by cysteine in monkeys; format: in vivo, rhesus monkey (Macaca mulatta); details: for Reversibility (Cysteine): Table 1, reversal of the blockade by cysteine; for Total Duration (Spontaneous Recovery): injection to 95% twitch height
Procedure: as §1, §2, §3
Comparative studies of spontaneous recovery versus antagonism/reversal were done at least 3 estimated half-lives following dose-response studies.

[3] = system: blood pressure and heart rate; assay: Circulatory effects (arterial pressure, heart rate) during neuromuscular blockade in rhesus monkeys; format: in vivo, rhesus monkey (Macaca mulatta); details: rhesus monkey
Procedure: Thus, the undesired side effect of tachycardia is not induced by a compound of the invention at a dose effective to induce NMB.
as §2, §4

[4] = Properties of cysteine solutions (solubility, natural pH); format: physicochemical; details: cysteine in its base form
Procedure: To accomplish the reversal of a neuromuscular blockade generated by one of these agents, cysteine is administered by intravenous injection. However, the natural pH of cysteine hydrochloride solutions at concentrations of 50 mg/ml or more in aqueous solution (e.g., 0.9% saline) is very low, ranging from about pH 0.8 to about pH 1.0. Moreover, cysteine is not soluble at concentrations greater than 50 mg/ml in its base form, but higher concentrations of cysteine are more conveniently administered for reversal of neuromuscular blockades. For example, bolus administration of volumes greater than 50 ml over a time period of 5-10 sec is generally not convenient in an operating room. Therefore, to be administered to patients, cysteine solutions have been developed that have higher concentrations and higher pH values as described herein.

[5] = Table 1, calculated dose for 95% block of twitch, monkeys, read-out: ED 95

## COc1ccc(C[C@@H]2c3cc(OC)c(OC)cc3CC[N@@+]2(C)CCCOC(=O)/C=C\C(=O)OCCC[N+]2(Cc3ccc4c(c3)OCCO4)CCOCC2)cc1OC [Compound 1521-78]
[1]
  ED95: 0.05 mg/kg
[1]; Table 1
  Duration (min ± SD): 12.1 ± 2.1 min
[2]
  Reversibility (Cysteine): Yes

## COc1ccc(C[C@@H]2c3cc(OC)c(OC)cc3CC[N@@+]2(C)CCCOC(=O)/C=C\C(=O)OCCC[N+]2(Cc3ccc(OC)cc3)CCOCC2)cc1 [Compound 1625-05]
[1]
  ED95: 0.09 mg/kg
[1]; Table 1
  Duration (min ± SD): 6 min
[2]
  Reversibility (Cysteine): Yes

## COc1ccc(C[C@@H]2c3cc(OC)c(OC)cc3CC[N@@+]2(C)CCCOC(=O)/C(Cl)=C/C(=O)OCCC[N+]2(Cc3ccc(OC)c(OC)c3)CCOCC2)cc1OC [Compound 1521-74]
[1]
  ED95: 0.16 mg/kg
[1]; Table 1
  Duration (min ± SD): 4.3 ± 1.1 min
[2]
  Reversibility (Cysteine): Yes

## COc1ccc(C[C@@H]2c3cc(OC)c(OC)cc3CC[N@@+]2(C)CCCOC(=O)/C=C\C(=O)OCCC[N+]2(Cc3ccc(OC)c(OC)c3)CCCC2)cc1OC [Compound 1390-80]
[1]; [5]
  ED95: 0.07 mg/kg
[1]; Table 1
  Duration (min ± SD): 9.0 ± 2.1 min
[2]
  Reversibility (Cysteine): Yes

## COc1cc2c(cc1OC)[C@@H](Cc1cc(OC)c(OC)c(OC)c1)[N@+](C)(CCCOC(=O)/C(Cl)=C/C(=O)OCCC[N+]1(Cc3cc(OC)c(OC)c(OC)c3)CCCCC1)CC2 [Compound 1343-05]
[1]
  ED95: 0.07 mg/kg
[1]; Table 1
  Duration (min ± SD): 6.7 ± 2.1 min
[2]
  Reversibility (Cysteine): Yes

## COc1ccc(C[N+]2(CCCOC(=O)/C=C(\Cl)C(=O)OCCC[N@+]3(C)CCc4cc(OC)c(OC)cc4[C@H]3Cc3cc(OC)c(OC)c(OC)c3)CCOCC2)cc1OC [Compound 1566-01]
[1]
  ED95: 0.61 mg/kg
[1]; Table 1
  Duration (min ± SD): 8 min
[2]
  Reversibility (Cysteine): Yes

## COc1ccc2c(c1)CC[N@@+](C)(CCCOC(=O)/C=C\C(=O)OCCC[N+]1(Cc3ccc(OC)c(OC)c3)CCOCC1)[C@@H]2Cc1ccc(OC)c(OC)c1 [Compound 1759-85]
[1]; [5]
  ED95: 0.22 mg/kg
[1]; Table 1
  Duration (min ± SD): 5.4 ± 1.3 min
[2]
  Reversibility (Cysteine): Yes

## COc1ccc(C[C@@H]2c3cc(OC)c(OC)cc3CC[N@@+]2(C)CCCOC(=O)/C=C\C(=O)OCCC[N+]2(Cc3cc(OC)c(OC)c(OC)c3)CCCC2)cc1OC [Compound 1343-13]
[1]
  ED95: 0.06 mg/kg
[1]; Table 1
  Duration (min ± SD): 8.8 ± 2.6 min
[2]
  Reversibility (Cysteine): Yes

## COc1ccc(C[C@@H]2c3cc(OC)c(OC)cc3CC[N@@+]2(C)CCCOC(=O)/C(Cl)=C/C(=O)OCCC[N+]2(Cc3cc(OC)c(OC)c(OC)c3)CCOCC2)cc1OC [Compound 1566-22]
[1]
  ED95: 0.19 mg/kg
[1]; Table 1
  Duration (min ± SD): 3.7 ± 0.3 min
[2]
  Reversibility (Cysteine): Yes

## COc1cc2c(cc1OC)[C@H](c1cc(OC)c(OC)c(OC)c1)[N@@+](C)(CCCOC(=O)/C=C(\Cl)C(=O)OCCC[N@+]1(C)CCc3cc(OC)c(OC)cc3[C@H]1Cc1cc(OC)c(OC)c(OC)c1)CC2 [Gantacurium, gantacurium, reference compound]
[1]
  Blockade (%): 99.2 ± 0.5%
  Onset: 97.1 ± 11.7 s
  Total Duration: 7.4 ± 1.9 min
[1]; rhesus monkeys, control study for comparison
  ED95 in a control study: 0.063 ± 0.0021 mg·kg

## COc1cc2c(cc1OC)[C@@H](Cc1cc(OC)c(OC)c(OC)c1)[N@+](C)(CCCOC(=O)/C(Cl)=C/C(=O)OCCC[N+]1(Cc3cc(OC)c(OC)c(OC)c3)CCCC1)CC2 [Compound 1326-69]
[1]; [5]
  ED95: 0.11 mg/kg
[1]; Table 1
  Duration (min ± SD): 4.5 ± 1.8 min
[2]
  Reversibility (Cysteine): Yes

## COc1ccc(C[C@@H]2c3cc(OC)c(OC)cc3CC[N@@+]2(C)CCCOC(=O)/C=C\C(=O)OCCC[N+]2(Cc3ccc(OC)c(OC)c3OC)CCCC2)cc1OC [Compound 1449-35]
[1]
  ED95: 0.126 mg/kg
[1]; Table 1
  Duration (min ± SD): 5 min
[2]
  Reversibility (Cysteine): Yes

## COc1ccc(C[C@@H]2c3cc(OC)c(OC)cc3CC[N@@+]2(C)CCCOC(=O)/C=C\C(=O)OCCC[N+]2(Cc3ccc(OC)c(OC)c3)CCOCC2)cc1 [Compound 1726-01]
[1]; 0.06 mg/kg dose, rhesus monkey
  duration of neuromuscular blockade (spontaneous recovery, FIG. 2): about six
[1]; [5]
  ED95: 0.05 mg/kg
[1]; Table 1
  Duration (min ± SD): 7.6 ± 2.4 min
[1]
  Blockade (%): 99.3 ± 0.2%
  Onset: 94.0 ± 8.7 s
  Total Duration: 8.2 ± 1.5 min
[1]; Table 3 comparison
  potency compared with gantacurium (% blockade, time to onset, total duration of effect): comparable to gantacurium in potency
[1]; rhesus monkeys
  ED95 (statistical analysis of dose-response study, FIG. 1): 0.054 ± 0.0022 mg/kg
[2]; 100% block
  spontaneous reversal of blockade time (FIG. 4): more than 10 minutes
[2]; 100% block, 30 mg/kg L-cysteine hydrochloride
  cysteine-induced reversal time (FIG. 4): ≤ 2 min
[2]; L-cysteine 30 mg/kg at +1 min following bolus 0.2 mg/kg (4x ED95), Point A
  5-95% Interval with L-Cysteine: 1.9 ± 0.2
[2]; L-cysteine 30 mg/kg at +1 min following discontinuation of infusion (30-120 mins), Point B
  5-95% Interval with L-Cysteine: 2.1 ± 0.2
[2]
  Reversibility (Cysteine): Yes
[2]; bolus 0.2 mg/kg (4x ED95), Point A
  5-95% Interval (Spontaneous Recovery): 6.2 ± 0.2
[2]; bolus 0.2 mg/kg (4x ED95)
  Total Duration (Spontaneous Recovery): 11.9 ± 0.3 min
[2]; bolus 0.05-0.06 mg/kg (ED99)
  5-95% Interval (Spontaneous Recovery): 5.2 ± 0.2
  Total Duration (Spontaneous Recovery): 7.3 ± 0.3 min
[2]; bolus or infusion, spontaneous or L-cysteine induced recovery, listed as 1759-50
  dependence of recovery (5-95% twitch recovery interval) on dosage or duration of infusion (FIG. 5): not significantly effected by the previous duration of infusion; also recorded: unaffected by dosage or duration of infusion
[2]; continuous infusions, 30-120 mins, Point B
  5-95% Interval (Spontaneous Recovery): 5.2 ± 0.3
[2]; dose of 4x the ED95 dose
  spontaneous reversal time (FIG. 3): about 11 minutes
[2]; dose of 4x the ED95 dose, 30 mg/kg L-cysteine hydrochloride
  time to termination of blockade following L-cysteine administration (FIG. 3): about two
[3]; 0.06 mg/kg dose, FIG. 2
  effect on blood pressure: no apparent effect on blood pressure
[3]; 0.06 mg/kg, dose effective to induce NMB
  effect on heart rate / tachycardia: no apparent effect on heart rate

## N[C@@H](CS)C(=O)O [cysteine]
[4]
  solubility: ≤ 50 mg/mL

## COc1ccc(C[C@@H]2c3cc(OC)c(OC)cc3CC[N@@+]2(C)CCCOC(=O)/C=C\C(=O)OCCC[N+]2(Cc3cc(OC)c(OC)c(OC)c3)CCOCC2)cc1 [Compound 1759-58]
[1]
  ED95: 0.064 mg/kg
[1]; Table 1
  Duration (min ± SD): 6 to 8 min
[2]
  Reversibility (Cysteine): Yes

## COc1cc2c(cc1OC)[C@@H](Cc1cc(OC)c(OC)c(OC)c1)[N@+](C)(CCCOC(=O)/C(Cl)=C/C(=O)OCCC[N+]1(Cc3ccc4c(c3)OCCO4)CCOCC1)CC2 [Compound 1598-46]
[1]
  ED95: 0.1 mg/kg
[1]; Table 1
  Duration (min ± SD): 6.8 ± 2.3 min
[2]
  Reversibility (Cysteine): Yes

## COc1ccc(C[N+]2(CCCOC(=O)/C=C\C(=O)OCCC[N@+]3(C)CCc4cc(OC)c(OC)cc4[C@H]3Cc3ccc(OC)c(OC)c3)CCCC2)cc1 [Compound 1521-28]
[1]
  ED95: 0.335 mg/kg
[1]; Table 1
  Duration (min ± SD): 6.5 min
[2]
  Reversibility (Cysteine): Yes
